Results taken from US12440496B2, “Natriuretic peptide receptor a agonists useful for the treatment of cardiometabolic diseases, kidney disease and diabetes” (Merck Sharp & Dohme LLC, priority 2019, dated 2025).
Structures can show the parent of a compound that is named as a salt.

Molecular target: T1, hNPRA (Homo sapiens, UniProt P16066)
T1 construct: expressed in transfected cells
T1 sequence (P16066 33-1061): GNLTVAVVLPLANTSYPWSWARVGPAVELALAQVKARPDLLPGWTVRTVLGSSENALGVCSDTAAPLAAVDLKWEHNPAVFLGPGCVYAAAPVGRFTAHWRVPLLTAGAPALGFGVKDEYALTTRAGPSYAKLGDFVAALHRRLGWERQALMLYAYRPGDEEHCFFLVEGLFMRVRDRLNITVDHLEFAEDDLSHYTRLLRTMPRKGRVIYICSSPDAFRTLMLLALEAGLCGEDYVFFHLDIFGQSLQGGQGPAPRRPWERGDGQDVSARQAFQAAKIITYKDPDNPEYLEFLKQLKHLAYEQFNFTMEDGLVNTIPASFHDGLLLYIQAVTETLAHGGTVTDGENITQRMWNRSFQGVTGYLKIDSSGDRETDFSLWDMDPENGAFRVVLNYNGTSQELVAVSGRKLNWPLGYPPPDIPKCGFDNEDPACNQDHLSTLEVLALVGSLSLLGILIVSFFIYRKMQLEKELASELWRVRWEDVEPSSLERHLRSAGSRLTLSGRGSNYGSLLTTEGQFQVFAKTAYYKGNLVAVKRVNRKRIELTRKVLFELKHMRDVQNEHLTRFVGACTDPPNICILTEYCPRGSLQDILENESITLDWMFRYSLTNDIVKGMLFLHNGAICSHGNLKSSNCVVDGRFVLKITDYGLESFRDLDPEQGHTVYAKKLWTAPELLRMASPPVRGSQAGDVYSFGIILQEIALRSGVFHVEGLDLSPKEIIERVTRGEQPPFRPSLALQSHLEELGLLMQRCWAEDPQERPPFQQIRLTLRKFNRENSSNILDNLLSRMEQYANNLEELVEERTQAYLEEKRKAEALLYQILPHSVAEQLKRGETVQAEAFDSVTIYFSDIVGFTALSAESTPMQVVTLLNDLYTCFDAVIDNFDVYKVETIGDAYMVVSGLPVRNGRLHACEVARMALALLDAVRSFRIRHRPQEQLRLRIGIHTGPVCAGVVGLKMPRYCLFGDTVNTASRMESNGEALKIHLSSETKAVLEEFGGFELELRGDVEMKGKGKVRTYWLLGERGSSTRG
Assay: NPRA Functional Cell Assay (cGMP HTRF, NPRA HEK JumpIn stable cells)
Assay type: cell-based
Conditions: cGMP production, 1 hour at 37° C., 10-point dose response
Method in brief: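 cGMP HTRF read-out after 1 hour compound treatment at 37° C. of human NPRA-expressing HEK JumpIn cells, 1500 cells/well, in buffer with phosphodiesterase inhibitors IBMX and RO20 (100 uM each). Signal converted to [cGMP] by calibration curve; EC50s fitted by 4-parameter logistic; 50 nM h-ANP as positive response.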

SMILES | EC50
CC(C)(C)[C@H]1CCc2nc3sc(C(=O)N[C@H](CCN4CCC(O)CC4)c4ccc(-c5ccc(=O)[nH]c5)nc4)nc3cc2C1 (racemic) [Example 195, rac-(7S)-7-tert-butyl-N-[rac-(1R)-3-(4-hydroxy-1-piperidyl)-1-[6-(6-oxo-1H-pyridin-3-yl)-3-pyridyl]propyl]-5,6,7,8-tetrahydrothiazolo[5,4-b]quinoline-2-carboxamide] | 0.126 µM
CC(C)(C)[C@@H]1CCc2nc3sc(C(=O)N[C@H](CCN4CCC(c5nn[nH]n5)CC4)c4ccc(-c5cnc(O)c(F)c5)cc4)nc3cc2C1 [Example 271, (R)-N-((R)-3-(4-(2H-tetrazol-5-yl)piperidin-1-yl)-1-(4-(5-fluoro-6-hydroxypyridin-3-yl)phenyl)propyl)-7-(tert-butyl)-5,6,7,8-tetrahydrothiazolo[5,4-b]quinoline-2-carboxamide] | 1.1 µM
CC(C)(C)[C@H]1CCc2nc3sc(C(=O)N[C@H](CCN4CCC(O)CC4)c4ccc(-c5cnsc5)cc4)nc3cc2C1 (racemic) [Example 180, rac-(7S)-7-tert-butyl-N-[rac-(1R)-3-(4-hydroxy-1-piperidyl)-1-(4-isothiazol-4-ylphenyl)propyl]-5,6,7,8-tetrahydrothiazolo[5,4-b]quinoline-2-carboxamide] | 1.44 µM
CC(C)(C)[C@H]1CCc2nc3sc(C(=O)N[C@H](CCN4CCC(c5nn[nH]n5)C4)c4ccc(-c5ccc(=O)[nH]c5)cc4)cc3cc2C1 (mixture of isomers) [Example 58, rac-(6S)-6-tert-butyl-N-[rac-(1R)-1-[4-(6-oxo-1H-pyridin-3-yl)phenyl]-3-[3-(2H-tetrazol-5-yl)pyrrolidin-1-ium-1-yl]propyl]-5,6,7,8-tetrahydrothieno[2,3-b]quinoline-2-carboxamide;formate] | 0.915 µM
CC(C)(C)[C@H]1CCc2nc3sc(C(=O)N[C@H](CCN4CCC(O)CC4)c4ccc(-c5ncns5)cc4)nc3cc2C1 (racemic) [Example 169, rac-(7S)-7-tert-butyl-N-[rac-(1R)-3-(4-hydroxy-1-piperidyl)-1-[4-(1,2,4-thiadiazol-5-yl)phenyl]propyl]-5,6,7,8-tetrahydrothiazolo[5,4-b]quinoline-2-carboxamide] | 0.793 µM
Cc1n[nH]c(C)c1Oc1ccc([C@@H](CCN2CCC(O)CC2)NC(=O)c2nc3cc4c(nc3s2)CC[C@H](C(C)(C)C)C4)cn1 (racemic) [Example 191, rac-(7S)-7-tert-butyl-N-[rac-(1R)-1-[6-[(3,5-dimethyl-1H-pyrazol-4-yl)oxy]-3-pyridyl]-3-(4-hydroxy-1-piperidyl)propyl]-5,6,7,8-tetrahydrothiazolo[5,4-b]quinoline-2-carboxamide] | 0.632 µM
CC(C)CN(C)CC[C@@H](NC(=O)c1nc2cc3c(nc2s1)CC[C@H](C(C)(C)C)C3)c1ccc(NS(=O)(=O)N(C)C)nc1 (racemic) [Example 212, isobutyl-methyl-[rac-(3R)-3-[6-(dimethylsulfamoylamino)-3-pyridyl]-3-[rac-(7S)-7-tert-butyl-5,6,7,8-tetrahydrothiazolo[5,4-b]quinoline-2-carbonyl]amino]propyl]ammonium; 2,2,2-trifluoroacetate] | 0.986 µM
Cn1cncc1-c1ccc([C@@H](CCN2CCC(O)CC2)NC(=O)c2nc3cc4c(nc3s2)CC[C@H](C(C)(C)C)C4)cc1 (racemic) [Example 179, rac-(7S)-7-tert-butyl-N-[rac-(1R)-3-(4-hydroxy-1-piperidyl)-1-[4-(3-methylimidazol-4-yl)phenyl]propyl]-5,6,7,8-tetrahydrothiazolo[5,4-b]quinoline-2-carboxamide] | 1.42 µM
CN(C)CC[C@@H](NC(=O)c1nc2cc3c(nc2s1)CC[C@H](C(C)(C)C)C3)c1cccc(C(=O)NCC2CCN(C)C2)c1 (mixture of isomers) [Example 88, rac-(7S)-7-tert-butyl-N-[rac-(1R)-3-(dimethylamino)-1-[3-[(1-methylpyrrolidin-3-yl)methylcarbamoyl]phenyl]propyl]-5,6,7,8-tetrahydrothiazolo[5,4-b] quinoline-2-carboxamide] | 0.23 µM

Results, then the molecule that gave them:

EC50 | SMILES
0.889 µM | CC(C)(C)[C@H]1CCc2nc3sc(C(=O)N[C@H](CCNC4CNC(=O)C4)c4ccc(-c5ccc(=O)[nH]c5)cc4)cc3cc2C1 (mixture of isomers) [Example 57, (5-oxopyrrolidin-3-yl)-[rac-(3R)-3-[4-(6-oxo-1H-pyridin-3-yl)phenyl]-3-[[rac-(6S)-6-tert-butyl-5,6,7,8-tetrahydrothieno[2,3-b]quinoline-2-carbonyl]amino]propyl] ammonium;formate]
0.27 µM | CC(C)(C)[C@H]1CCc2nc3sc(C(=O)N[C@H](CCN4CCC(O)CC4)c4ccc(-c5ccc(=O)[nH]c5)cc4)nc3cc2C1 (racemic) [Example 79, rac-(7S)-7-tert-butyl-N-[rac-(1R)-3-(4-hydroxypiperidin-1-ium-1-yl)-1-[4-(6-oxo-1H-pyridin-3-yl)phenyl]propyl]-5,6,7,8-tetrahydrothiazolo[5,4-b]quinoline-2-carboxamide; formate]
0.535 µM | CC(C)(C)[C@H]1CCc2nc3sc(C(=O)N[C@H](CCN4CCC(n5ncnn5)CC4)c4ccc(-c5ccc(=O)[nH]c5)cc4)cc3cc2C1 (racemic) [Example 35, rac-(6S)-6-tert-butyl-N-[rac-(1R)-1-[4-(6-oxo-1H-pyridin-3-yl)phenyl]-3-[4-(tetrazol-2-yl)piperidin-1-ium-1-yl]propyl]-5,6,7,8-tetrahydrothieno[2,3-b]quinoline-2-carboxamide;formate]
1.67 µM | CC(C)(C)[C@H]1CCc2nc3sc(C(=O)N[C@H](CCN4CCC(O)CC4)c4cccc(N5CCOC5=O)c4)nc3cc2C1 (racemic) [Example 120, rac-(7S)-7-tert-butyl-N-[rac-(1R)-3-(4-hydroxypiperidin-1-ium-1-yl)-1-[3-(2-oxooxazolidin-3-yl)phenyl]propyl]-5,6,7,8-tetrahydrothiazolo[5,4-b] quinoline-2-carboxamide; 2,2,2-trifluoroacetate]
3.22 µM | CC(C)(C)[C@H]1CCc2nc3sc(C(=O)N[C@H](CCN4CCCC4)c4ccccc4)cc3cc2C1 [Example 253, (6S)-6-tert-butyl-N-[(1R)-1-phenyl-3-pyrrolidin-1-ylpropyl]-5,6,7,8-tetrahydrothieno[2,3-b]quinoline-2-carboxamide]
0.626 µM | CC(C)(C)[C@H]1CCc2nc3sc(C(=O)N[C@H](CCN4CCC(C(=O)O)CC4)c4ccc(N5CC(=O)NC5=O)nc4)nc3cc2C1 [Example 222, 1-((R)-3-((S)-7-(tert-butyl)-5,6,7,8-tetrahydrothiazolo[5,4-b]quinoline-2-carboxamido)-3-(6-(2,4-dioxoimidazolidin-1-yl)pyridin-3-yl)propyl)piperidine-4-carboxylic acid]
0.113 µM | CC1([C@H]2CCc3nc4sc(C(=O)N[C@H](CCN5CCC(O)CC5)c5ccc(-c6ccnnc6)nc5)nc4cc3C2)CC1 [Example 264, (S)-N-((R)-3-(4-hydroxypiperidin-1-yl)-1-(6-(pyridazin-4-yl)pyridin-3-yl)propyl)-7-(1-methylcyclopropyl)-5,6,7,8-tetrahydrothiazolo[5,4-b]quinoline-2-carboxamide]
0.557 µM | CC(C)(C)[C@H]1CCc2nc3sc(C(=O)N[C@H](CCNC4CCOCC4)c4ccc(-c5ccc(=O)[nH]c5)cc4)cc3cc2C1 (racemic) [Example 36, [rac-(3R)-3-[4-(6-oxo-1H-pyridin-3-yl)phenyl]-3-[rac-(6S)-6-tert-butyl-5,6,7,8-tetrahydrothieno[2,3-b]quinoline-2-carbonyl]amino]propyl]-tetrahydropyran-4-yl-ammonium;formate]
0.142 µM | CC(C)(C)[C@H]1CCc2nc3sc(C(=O)N[C@H](CCN4CCC(O)CC4)c4cnc(-c5ccnnc5)c(F)c4)nc3cc2C1 [Example 266, (S)-7-(tert-butyl)-N-((R)-1-(5-fluoro-6-(pyridazin-4-yl)pyridin-3-yl)-3-(4-hydroxypiperidin-1-yl)propyl)-5,6,7,8-tetrahydrothiazolo[5,4-b]quinoline-2-carboxamide]
0.764 µM | CN(C)S(=O)(=O)Nc1ccc([C@@H](CCN2CC[C@@H](O)C2)NC(=O)c2nc3cc4c(nc3s2)CC[C@H](C(C)(C)C)C4)cn1 (racemic) [Example 211, rac-(7S)-7-tert-butyl-N-[rac-(1R)-1-[6-(dimethylsulfamoylamino)-3-pyridyl]-3-[rac-(3R)-3-hydroxypyrrolidin-1-ium-1-yl]propyl]-5,6,7,8-tetrahydrothiazolo[5,4-b]quinoline-2-carboxamide; 2,2,2-trifluoroacetate]
